Source: PubChem BioAssay (NCI)
“And” between values parts separate entries of the source, which are not always exact repeats. Identical values can stand only once.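 Step 1: Grow cells in 96-well plates. Step 2: Expose to compound for 48 hours at 5 concentrations. Step 3: Interpolate endpoints linearly; if unreached, use highest concentration. GI50 = concentration required for 50% inhibition of growth. TGI marks complete inhibition of growth.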

Key:
Assay in all cases: NCI anticancer screen, dose series, 48 h
786-0 renal = test system: 786-0 renal
A498 renal = test system: A498 renal
A549 NSCLC = test system: A549 NSCLC
ACHN renal = test system: ACHN renal
BT-549 breast = test system: BT-549 breast
CAKI-1 renal = test system: CAKI-1 renal
CCRF-CEM leukemia = test system: CCRF-CEM leukemia
COLO 205 colon = test system: COLO 205 colon
DU-145 prostate = test system: DU-145 prostate
EKVX NSCLC = test system: EKVX NSCLC
HCC-2998 colon = test system: HCC-2998 colon
HCT-116 colon = test system: HCT-116 colon
HCT-15 colon = test system: HCT-15 colon
HL-60(TB) leukemia = test system: HL-60(TB) leukemia
HOP-62 NSCLC = test system: HOP-62 NSCLC
HOP-92 NSCLC = test system: HOP-92 NSCLC
HS 578T breast = test system: HS 578T breast
HT29 colon = test system: HT29 colon
IGROV1 ovarian = test system: IGROV1 ovarian
K-562 leukemia = test system: K-562 leukemia
KM12 colon = test system: KM12 colon
LOX IMVI melanoma = test system: LOX IMVI melanoma
M14 melanoma = test system: M14 melanoma
MALME-3M melanoma = test system: MALME-3M melanoma
MCF7 breast = test system: MCF7 breast
MDA-MB-231 breast = test system: MDA-MB-231 breast
MDA-MB-435 = test system: MDA-MB-435
MOLT-4 leukemia = test system: MOLT-4 leukemia
NCI-H226 lung = test system: NCI-H226 lung
NCI-H23 lung = test system: NCI-H23 lung
NCI-H460 lung = test system: NCI-H460 lung
NCI-H522 lung = test system: NCI-H522 lung
NCI/ADR-RES ovarian = test system: NCI/ADR-RES ovarian
OVCAR-3 ovarian = test system: OVCAR-3 ovarian
OVCAR-4 ovarian = test system: OVCAR-4 ovarian
OVCAR-5 ovarian = test system: OVCAR-5 ovarian
OVCAR-8 ovarian = test system: OVCAR-8 ovarian
PC-3 prostate = test system: PC-3 prostate
RPMI-8226 leukemia = test system: RPMI-8226 leukemia
RXF 393 renal = test system: RXF 393 renal
SF-268 CNS = test system: SF-268 CNS
SF-295 CNS = test system: SF-295 CNS
SF-539 CNS = test system: SF-539 CNS
SK-MEL-2 melanoma = test system: SK-MEL-2 melanoma
SK-MEL-28 melanoma = test system: SK-MEL-28 melanoma
SK-MEL-5 melanoma = test system: SK-MEL-5 melanoma
SK-OV-3 ovarian = test system: SK-OV-3 ovarian
SN12C renal = test system: SN12C renal
SNB-19 CNS = test system: SNB-19 CNS
SNB-75 CNS = test system: SNB-75 CNS
SW-620 colon = test system: SW-620 colon
T-47D breast = test system: T-47D breast
TK-10 renal = test system: TK-10 renal
U251 CNS = test system: U251 CNS
UACC-257 melanoma = test system: UACC-257 melanoma
UACC-62 melanoma = test system: UACC-62 melanoma
UO-31 renal = test system: UO-31 renal

## C1=C/COCc2cc(ccc2OCCN2CCCC2)Nc2nccc(n2)-c2cccc(c2)COC/1
786-0 renal
  GI50: 1.28 µM and 1.4 µM
  TGI: 3.14 µM and 2.88 µM
A498 renal
  GI50: 1.25 µM and 1.31 µM
  TGI: 2.7 µM and 3.98 µM
A549 NSCLC
  GI50: 1.06 µM and 1.14 µM
  TGI: 3 µM and 3.38 µM
ACHN renal
  GI50: 0.394 µM and 0.486 µM
  TGI: 2.76 µM and 3.68 µM
BT-549 breast
  GI50: 2.15 µM and 2.3 µM
  TGI: 5.02 µM and 4.87 µM
CAKI-1 renal
  GI50: 0.443 µM and 0.463 µM
  TGI: 2.04 µM and 2.25 µM
CCRF-CEM leukemia
  GI50: 0.652 µM and 1.08 µM
  TGI: 11.5 µM and 6.62 µM
COLO 205 colon
  GI50: 0.443 µM and 0.643 µM
  TGI: 1.84 µM and 1.85 µM
DU-145 prostate
  GI50: 0.433 µM and 0.749 µM
  TGI: 11.2 µM and 3.66 µM
EKVX NSCLC
  GI50: 1.72 µM and 1.76 µM
  TGI: 8.83 µM and 5.74 µM
HCC-2998 colon
  GI50: 1.18 µM and 1.28 µM
  TGI: 3.19 µM and 3.1 µM
HCT-116 colon
  GI50: 0.457 µM and 0.498 µM
  TGI: 2.39 µM and 1.78 µM
HCT-15 colon
  GI50: 0.35 µM and 0.558 µM
  TGI: 2.3 µM and 6.84 µM
HL-60(TB) leukemia
  GI50: 0.181 µM and 0.522 µM
  TGI: 0.887 µM and 2.15 µM
HOP-62 NSCLC
  GI50: 1.11 µM and 1.36 µM
  TGI: 4.39 µM and 3.23 µM
HOP-92 NSCLC
  GI50: 1.2 µM and 0.624 µM
  TGI: 6.38 µM and 3.15 µM
HS 578T breast
  GI50: 1.29 µM and 1.68 µM
  TGI: 4.47 µM and 5.56 µM
HT29 colon
  GI50: 0.481 µM and 0.542 µM
  TGI: 2.45 µM and 2.64 µM
IGROV1 ovarian
  GI50: 0.498 µM and 0.552 µM
  TGI: 3.02 µM and 3.55 µM
K-562 leukemia
  GI50: 0.639 µM and 1.18 µM
  TGI: 4.05 µM and 4.51 µM
KM12 colon
  GI50: 0.149 µM and 0.224 µM
  TGI: 1.4 µM and 1.57 µM
LOX IMVI melanoma
  GI50: 0.37 µM and 0.58 µM
  TGI: 1.58 µM and 2.17 µM
M14 melanoma
  GI50: 0.669 µM and 0.997 µM
  TGI: 2.46 µM and 2.43 µM
MALME-3M melanoma
  GI50: 0.68 µM and 1.21 µM
  TGI: 2.19 µM and 2.89 µM
MCF7 breast
  GI50: 0.353 µM
  TGI: 1.54 µM
MDA-MB-231 breast
  GI50: 1.17 µM and 0.798 µM
  TGI: 3.13 µM and 2.92 µM
MDA-MB-435
  GI50: 0.582 µM
  TGI: 1.99 µM and 2.03 µM
MOLT-4 leukemia
  GI50: 0.369 µM and 0.689 µM
  TGI: 2.54 µM and 4.09 µM
NCI-H226 lung
  GI50: 0.376 µM and 1.28 µM
  TGI: 1.82 µM and 2.73 µM
NCI-H23 lung
  GI50: 0.628 µM and 1.14 µM
  TGI: 2.36 µM and 3.21 µM
NCI-H460 lung
  GI50: 0.847 µM and 1.08 µM
  TGI: 2.75 µM and 3.06 µM
NCI-H522 lung
  GI50: 1.75 µM and 1.44 µM
  TGI: 3.75 µM and 3.4 µM
NCI/ADR-RES ovarian
  GI50: 1.09 µM and 1.76 µM
  TGI: 4.33 µM and 6.24 µM
OVCAR-3 ovarian
  GI50: 0.849 µM and 1.31 µM
  TGI: 2.85 µM and 2.89 µM
OVCAR-4 ovarian
  GI50: 1.55 µM and 1.37 µM
  TGI: 4.51 µM and 3.21 µM
OVCAR-5 ovarian
  GI50: 0.356 µM and 0.717 µM
  TGI: 2.36 µM and 2.78 µM
OVCAR-8 ovarian
  GI50: 1.28 µM and 1.84 µM
  TGI: 4.31 µM and 8.03 µM
PC-3 prostate
  GI50: 0.62 µM and 1.01 µM
  TGI: 3.17 µM and 3.93 µM
RPMI-8226 leukemia
  GI50: 1.37 µM and 1.91 µM
  TGI: 4.64 µM and 5.84 µM
RXF 393 renal
  GI50: 0.278 µM and 0.339 µM
  TGI: 0.784 µM and 1.12 µM
SF-268 CNS
  GI50: 0.648 µM and 1.05 µM
  TGI: 2.56 µM and 2.82 µM
SF-295 CNS
  GI50: 1.58 µM and 1.98 µM
  TGI: 3.34 µM and 4.29 µM
SF-539 CNS
  GI50: 1.47 µM and 1.8 µM
  TGI: 3 µM and 3.32 µM
SK-MEL-2 melanoma
  GI50: 1.55 µM and 1.43 µM
  TGI: 3.57 µM and 3.22 µM
SK-MEL-28 melanoma
  GI50: 1.29 µM and 1.15 µM
  TGI: 2.86 µM and 2.43 µM
SK-MEL-5 melanoma
  GI50: 0.672 µM
  TGI: 1.82 µM
SK-OV-3 ovarian
  GI50: 1.45 µM and 1.19 µM
  TGI: 3.28 µM and 2.58 µM
SN12C renal
  GI50: 0.587 µM and 0.586 µM
  TGI: 2.62 µM and 2.94 µM
SNB-19 CNS
  GI50: 1.34 µM and 1.85 µM
  TGI: 5.6 µM and 8.47 µM
SNB-75 CNS
  GI50: 1.08 µM and 1.14 µM
  TGI: 2.44 µM and 2.6 µM
SW-620 colon
  GI50: 0.489 µM and 0.927 µM
  TGI: 2.59 µM and 3.69 µM
T-47D breast
  GI50: 0.509 µM and 0.949 µM
  TGI: 3.03 µM and 3.78 µM
TK-10 renal
  GI50: 1.58 µM and 1.09 µM
  TGI: 3.67 µM and 3.84 µM
U251 CNS
  GI50: 1.12 µM and 1.27 µM
  TGI: 2.63 µM and 3.14 µM
UACC-257 melanoma
  GI50: 1.65 µM and 1.48 µM
  TGI: 3.25 µM and 2.99 µM
UACC-62 melanoma
  GI50: 0.641 µM and 1.3 µM
  TGI: 2.12 µM and 2.73 µM
UO-31 renal
  GI50: 0.366 µM and 0.758 µM
  TGI: 2.02 µM and 3.2 µM
